In patent US20060212961A1, “Rice transposon gene” (priority 2003, published 2006):

Key:
pyl-stb seeds = experiment: Azacytidine treatment of pyl-stb seeds, appearance of mutable (pyl-v) individuals; format: in vivo, rice; conditions: for Germination rate (%) / Mutable individual (%) / Individual with mutable or abnormal phenotype / Mutable individual / Normal individual: seeds macerated 24 hrs at 30° C.; for Individual with mutable or abnormal phenotype / Mutable individual / Normal individual: number of individuals
Method: pyl-stb seeds were macerated in 0.15, 0.3 or 0.45 mM azacytidine aqueous solution for 24 hrs at 30° C., washed them, left for germination and examined the expression of pyl-v.

indica rice (93-11) = experiment: Azacytidine treatment of indica rice (93-11), release of nDart; format: in vivo; conditions: 93-11 treated with azacytidine; no release under usual growth conditions
Method: Furthermore, indica rice (93-11) was treated with azacytidine and confirmed release of nDart.

Compound: Nc1ncn([C@@H]2O[C@H](CO)[C@@H](O)[C@H]2O)c(=O)n1 [azaC, 5-azacytidine]
- Frequency of the transposition of nDart (pyl-stb seeds; 0.15, 0.3 or 0.45 mM azacytidine aqueous solution, 24 hrs at 30° C.): increased as the concentration of azacytidine increased
- Germination rate (%) (pyl-stb seeds; azaC 0.15 mM): 99%
- Mutable individual (%) (pyl-stb seeds; azaC 0.15 mM): 60.6%
- Individual with mutable or abnormal phenotype (pyl-stb seeds; azaC 0.15 mM): 17
- Mutable individual (pyl-stb seeds; azaC 0.15 mM): 43
- Normal individual (pyl-stb seeds; azaC 0.15 mM): 39
- Germination rate (%) (pyl-stb seeds; azaC 0.3 mM): 92%
- Mutable individual (%) (pyl-stb seeds; azaC 0.3 mM): 69.6%
- Individual with mutable or abnormal phenotype (pyl-stb seeds; azaC 0.3 mM): 27
- Mutable individual (pyl-stb seeds; azaC 0.3 mM): 37
- Normal individual (pyl-stb seeds; azaC 0.3 mM): 28
- Germination rate (%) (pyl-stb seeds; azaC 0.45 mM): 95%
- Mutable individual (%) (pyl-stb seeds; azaC 0.45 mM): 73.7%
- Individual with mutable or abnormal phenotype (pyl-stb seeds; azaC 0.45 mM): 36
- Mutable individual (pyl-stb seeds; azaC 0.45 mM): 34
- Normal individual (pyl-stb seeds; azaC 0.45 mM): 25
- Change of pyl-stb to a pyl-v mutant (pyl-stb seeds; azacytidine treatment of pyl-stb seeds): able to be changed to a pyl-v mutant
- Release of nDart (indica rice (93-11)): release was confirmed
